Experiments:
[1] = tested on: formation of blood vessels in Matrigel; assay: Matrigel plug assay (hemoglobin in bFGF/heparin Matrigel implanted in mice); format: in vivo, C57BL/6 female mice; conditions: 0.65 mg/mouse orally twice per day for four days; control = 100
Procedure: 0.4 ml portion of Matrigel each mixed with 50 ng/ml of basic fibroblast growth factor (bFGF) and 50 units of heparin were implanted by subcutaneous injection in 5-week-old C57BL/6 female mice, and a mixture of 0.65 mg ticlopidine and 0.4 mg Ginkgo biloba extract was orally administrated to each mouse twice per day for four days. Then each mouse was sacrificed and the Matrigel was excised. For comparison, the procedure was repeated using ticlopidine or Ginkgo biloba extract alone. The formation of blood vessels in Matrigel was tested by measuring the amount of hemoglobin (Hb) in the Matrigel using the Drabkin reagent kit (Sigma Chemical Co., St. Louise, Mich., USA) which contained standards of known amounts of Hb.

[2] = tested on: Human umbilical vein endothelial cells (HUVECs); assay: Tube formation assay of HUVEC in Matrigel; format: cell-based; conditions: 50 μM ticlopidine alone; total tube area per well relative to control (100)
Procedure: The tube formation assay was performed as follows: 48-well plates were coated with 0.2 ml of Matrigel (BD Bioscience, Bedford, Mass., USA) and incubated at 37° C. for 1 hr. 4˜6×10^4 HUVECs resuspended in 0.4 ml of M199 medium were added to each well. Ticlopidine (Sigma Chemical Co., USA) and Ginkgo biloba extract (Hwa Il Pharmaceutical Co., LTD, Korea), a standardized extract that contained 24% flavonoid glycosides and 6% terpenoids, were added to the Matrigel. Final concentration of ticlopidine and Ginkgo biloba extract were 25 μM and 5 μg/ml, respectively. As a control, the procedure was repeated without added ticlopidine and Ginkgo biloba extract. Comparative runs were also conducted by the same procedure using ticlopidine alone (comparative run 1) or only with Ginkgo biloba extract (comparative run 2). The extent of tube formation was determined by measuring the total tube area per well relative to that of the control using image analysis program Image-Pro Pluso (Media Cybernetics, USA).

Clc1ccccc1CN1CCc2sccc2C1 [Ticlopidine, 5-[(2-chlorophenyl)methyl]-4,5,6,7-tetrahydrothieno[3,2-C]pyridine]
Hemoglobin (%) [1]: 95% | Total Tube Area % [2]: 91%
